These results are taken from ChEMBL document CHEMBL1158501, “Synthesis and structure-activity relationships of novel furazan-3,4-diamide analogs as potent anti-cancer agents” (Bioorg Med Chem Lett, 2010).

Assay [1] deals with U-87 MG. The assay is described as follows: Inhibition of human U87MG cells after 48 hrs. The class given is functional, cell-based, U-87MG ATCC.
Assay [2] has as its system SW480. Briefly: Inhibition of human SW480 cells after 48 hrs. The class given is functional, cell-based. To be noted: SW480, 48 h.
In assay [3] the test system is SW480. Briefly: Inhibition of human SW480 cells at >= IC50 after 48 hrs. Format: functional.
Assay [4] deals with U-87 MG. Briefly: Inhibition of human U87MG cells at >= IC50 after 48 hrs. The class given is functional, U-87MG ATCC.

The term IC50 denotes the concentration needed to halve the response being measured. A high value points to weaker potency in that assay. Turning to `COc1ccc(C(=O)Nc2nonc2NC(=O)c2ccc(OC)cc2)cc1`, the IC50 in the assay with U-87 MG [1] and with SW480 [2] was above 40 µM throughout.
For `O=C(CN1CCOCC1)Nc1nonc1NC(=O)CN1CCOCC1`, the IC50 with U-87 MG [1] and in the assay with SW480 [2] was above 200 µM each time.
For `O=C(Nc1nonc1NC(=O)C1CCCCC1)C1CCCCC1`, the IC50 in the assay on U-87 MG [1] and in the assay on SW480 [2] was above 20 µM each time.
Take `O=C(Nc1nonc1NC(=O)c1ccc(Cl)c(Cl)c1)c1ccc(Cl)c(Cl)c1`: the IC50 in the assay on U-87 MG [1] was found to be 24 µM; in the assay with SW480 [2], 39.7 µM.
`O=C(Nc1nonc1NC(=O)c1ccco1)c1ccco1`: the half-inhibitory concentration (IC50) in the assay on U-87 MG [1] and in the assay with SW480 [2] was above 200 µM in each case.
On to `O=C(Nc1nonc1NC(=O)c1ccc(F)cc1)c1ccc(F)cc1`, for which the “inhibition (INH)” value in the assay on SW480 [3] amounted to 50%. Moreover, the IC50 came to 6 µM in the assay on U-87 MG [1] and 10 µM in the assay with SW480 [2].
For the molecule `O=C(Nc1nonc1NC(=O)c1ccc(Cl)cc1)c1ccc(Cl)cc1`, the “inhibition (INH)” value with SW480 [3] is recorded as 50%; in the assay on U-87 MG [4], 70%. Besides, the IC50 was 14 µM with U-87 MG [1] and 8 µM in the assay with SW480 [2].
`O=C(Nc1nonc1NCc1ccc(C(F)(F)F)cc1)c1ccc(C(F)(F)F)cc1`: the figures for the IC50 in the assay with U-87 MG [1] and with SW480 [2] were 18.2 µM and 18.5 µM, respectively.
`FC(F)(F)c1ccc(CNc2nonc2NCc2ccc(C(F)(F)F)cc2)cc1`: the figures for the IC50 in the assay with U-87 MG [1] and in the assay on SW480 [2] were 20.6 µM and 22.9 µM, respectively.
As to `O=C(Nc1nonc1NC(=O)C1CCCC1)C1CCCC1`, the IC50 with U-87 MG [1] and with SW480 [2] was above 200 µM each time.
Consider `CC(C)=CC(=O)Nc1nonc1NC(=O)C=C(C)C`, for which the IC50 in the assay with U-87 MG [1] and with SW480 [2] was above 200 µM each time.
For the molecule `O=C(Nc1nonc1NC(=O)c1ccccc1)c1ccccc1`, the IC50 in the assay on U-87 MG [1] was found to be 122 µM; in the assay with SW480 [2] it was 137 µM.
As to `O=C(Nc1ccccc1NC(=O)c1ccc(C(F)(F)F)cc1)c1ccc(C(F)(F)F)cc1`, the 50% inhibitory concentration (IC50) in the assay with U-87 MG [1] and in the assay on SW480 [2] was above 8 µM throughout.
Consider `O=C(Nc1nonc1NC(=O)c1ccc(Br)cc1)c1ccc(Br)cc1`, for which the “inhibition (INH)” value in the assay on SW480 [3] came out at 50%; with U-87 MG [4], 77%. Also, the IC50 with U-87 MG [1] was found to be 14 µM; with SW480 [2], 4 µM.
Consider `O=C(Nc1n[nH]c(O)c1NC(=O)c1ccc(C(F)(F)F)cc1)c1ccc(C(F)(F)F)cc1`, for which the IC50 in the assay on U-87 MG [1] and in the assay on SW480 [2] was above 200 µM each time.
For `O=C(Nc1nonc1NC(=O)c1cc(C(F)(F)F)cc(C(F)(F)F)c1)c1cc(C(F)(F)F)cc(C(F)(F)F)c1`, the values for the IC50 in the assay on U-87 MG [1] and in the assay with SW480 [2] were 17.7 µM and 10.8 µM, respectively.
On the same counts, the results for `O=C(Nc1cscc1NC(=O)c1ccc(C(F)(F)F)cc1)c1ccc(C(F)(F)F)cc1` are above 8 µM and above 8 µM.
For `O=C(Nc1nonc1NC(=O)c1c(F)c(F)c(F)c(F)c1F)c1c(F)c(F)c(F)c(F)c1F`, the IC50 is 25.5 µM in the assay on U-87 MG [1] and 17.2 µM in the assay on SW480 [2].
Turning to `O=C(Nc1nonc1NC(=O)c1ccccc1C(F)(F)F)c1ccccc1C(F)(F)F`, the figures for the IC50 in the assay with U-87 MG [1] and with SW480 [2] were above 100 µM and 89.3 µM, respectively.
Take `O=C(Nc1nonc1NC(=O)c1cccc(C(F)(F)F)c1)c1cccc(C(F)(F)F)c1`: the IC50 in the assay with U-87 MG [1] and with SW480 [2] was above 10 µM in each case.
Consider `Nc1nonc1NC(=O)c1ccc(C(F)(F)F)cc1`, for which the IC50 with U-87 MG [1] and with SW480 [2] was above 200 µM each time.
For `O=C(CCl)Nc1nonc1NC(=O)CCl`, the IC50 in the assay with U-87 MG [1] is 17.1 µM; in the assay on SW480 [2], 7.4 µM.
On the same counts, the results for `O=C(Nc1nonc1NC(=O)C(Cl)(Cl)Cl)C(Cl)(Cl)Cl` are above 200 µM and above 200 µM.
In the case of `O=C(Nc1nonc1NC(=O)c1ccc(C(F)(F)F)cc1)c1ccc(C(F)(F)F)cc1`, the results for the IC50 with U-87 MG [1] and in the assay with SW480 [2] were 14.6 µM and 11.2 µM, respectively.
For the molecule `O=C(Nc1nonc1NC(=O)c1ccc(I)cc1)c1ccc(I)cc1`, the “inhibition (INH)” value in the assay with SW480 [3] is on record as 50%; in the assay with U-87 MG [4], 70%. Further, the IC50 amounted to 1 µM with U-87 MG [1] and 2 µM in the assay with SW480 [2].
As to `Cc1ccc(C(=O)Nc2nonc2NC(=O)c2ccc(C)cc2)cc1`, the half-inhibitory concentration (IC50) in the assay with U-87 MG [1] and in the assay with SW480 [2] was above 40 µM each time.
For `COc1cccc(C(=O)Nc2nonc2NC(=O)c2cccc(OC)c2)c1`, the IC50 in the assay on U-87 MG [1] is 70.7 µM; with SW480 [2] it was 71 µM.
